This experiment relates to M17-SYNwt cells. Put plainly: α-synuclein cytotoxicity assay (LDH leakage from paraquat-treated α-synuclein over-expressing neuroblastoma cells). In kind it is cell-based, human. Particulars: paraquat 32 mM, 40 hours, LDH release; for EC50: Homo sapiens, Neuroblastoma cell, 10 point curves in duplicate; for %I: percent inhibition of synuclein cytotoxicity at most effective concentration of test compound, relative to untreated paraquat cells. In outline:
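M17 neuroblastoma cells over-expressing wild-type α-synuclein were challenged with paraquat, and cytotoxicity was read as LDH release. Protection was expressed as percent reduction of paraquat-induced LDH release relative to untreated paraquat cells and control cells. Actives were retested in 10-point duplicate dose responses.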

In brackets after ≈: the same amount, converted by molar mass.

Broadly, the EC50 is the concentration at which the effect is half-maximal.

For `CC1CN(c2nc(Cc3ccc(Cl)cc3)ns2)CCN1C(=O)c1cccc(F)c1` (stereo not drawn) [Compound 125, 1-(3-fluorobenzoyl)-4-[3-(4-chlorobenzyl)-1,2,4-thiadiazol-5-yl]-2-methylpiperazine], the concentration for a half-maximal effect (EC50) amounted to 0.16 µg/mL (≈ 0.371 µM) and the “%I” value was found to be 68%.
Regarding `CC1CN(c2nc(Cc3ccc(F)cc3)ns2)CCN1C(=O)c1ccccc1` (stereo not drawn) [Compound 126, 1-benzoyl-4-[3-(4-fluorobenzyl)-1,2,4-thiadiazol-5-yl]-2-methylpiperazine], the concentration for a half-maximal effect (EC50) stood at 0.21 µg/mL (≈ 0.53 µM) and the “%I” value stood at 63%.
The corresponding values for `CC1CN(c2nc(Cc3ccc(F)cc3)ns2)CCN1C(=O)c1ccc(F)cc1` (stereo not drawn) [Compound 127, 1-(4-fluorobenzoyl)-4-[3-(4-fluorobenzyl)-1,2,4-thiadiazol-5-yl]-2-methylpiperazine] are 0.23 µg/mL (≈ 0.555 µM) and 108%.
The matching figures for `CC1CN(c2nc(Cc3ccc(F)cc3)ns2)CCN1C(=O)c1ccc(C(C)(C)C)cc1` (stereo not drawn) [Compound 128, 1-(4-tert-butylbenzoyl)-4-[3-(4-fluorobenzyl)-1,2,4-thiadiazol-5-yl]-2-methylpiperazine]: 0.24 µg/mL (≈ 0.53 µM) and 95%.
For `CC1CN(c2nc(Cc3ccc(F)cc3)ns2)CCN1C(=O)c1ccc(-c2ccccc2)cc1` (stereo not drawn) [Compound 129, 1-(1,1'-biphenyl-4-ylcarbonyl)-4-[3-(4-fluorobenzyl)-1,2,4-thiadiazol-5-yl]-2-methylpiperazine], the EC50 is 0.24 µg/mL (≈ 0.508 µM) and the “%I” value came out at 61%.
The matching figures for `CCc1ccc(C(=O)N2CCN(c3nc(Cc4ccc(C)cc4)ns3)CC2)cc1` [Compound 131, 1-(4-ethylbenzoyl)-4-[3-(4-methylbenzyl)-1,2,4-thiadiazol-5-yl]piperazine]: 0.25 µg/mL (≈ 0.615 µM) and 91%.
The corresponding values for `CC1CN(c2nc(Cc3ccc(F)cc3)ns2)CCN1C(=O)c1ccc2ccccc2c1` (stereo not drawn) [Compound 132, 1-(2-naphthoyl)-4-[3-(4-fluorobenzyl)-1,2,4-thiadiazol-5-yl]-2-methylpiperazine] are 0.26 µg/mL (≈ 0.582 µM) and 74%.
The matching figures for `COc1ccccc1C(=O)N1CCN(c2nc(Cc3ccc(F)cc3)ns2)CC1C` (stereo not drawn) [Compound 133, 1-(2-methoxybenzoyl)-4-[3-(4-fluorobenzyl)-1,2,4-thiadiazol-5-yl]-2-methylpiperazine]: 0.29 µg/mL (≈ 0.68 µM) and 118%.
With `CCCCCc1ccc(C(=O)N2CCN(c3nc(Cc4ccc(C)cc4)ns3)CC2C)cc1` (stereo not drawn) [Compound 134, 1-(4-pentylbenzoyl)-4-[3-(4-methylbenzyl)-1,2,4-thiadiazol-5-yl]-2-methylpiperazine], the EC50 was found to be 0.3 µg/mL (≈ 0.648 µM) and the “%I” value was 75%.
For the compound `CC1CN(c2nc(Cc3ccc(F)cc3)ns2)CCN1C(=O)c1ccc(Br)cc1` (stereo not drawn) [Compound 135, 1-(4-bromobenzoyl)-4-[3-(4-fluorobenzyl)-1,2,4-thiadiazol-5-yl]-2-methylpiperazine], the response was half-maximal at 0.31 µg/mL (≈ 0.652 µM) (EC50) and the “%I” value was 73%.
Take `COc1ccc(C(=O)N2CCN(c3nc(Cc4ccc(F)cc4)ns3)CC2C)c(OC)c1` (stereo not drawn) [Compound 136, 1-(2,4-dimethoxybenzoyl)-4-[3-(4-fluorobenzyl)-1,2,4-thiadiazol-5-yl]-2-methylpiperazine]: a half-maximal response (EC50) required 0.34 µg/mL (≈ 0.745 µM) and the “%I” value was 83%.
As to `O=C(c1cc(Cl)cc(Cl)c1)N1CCN(c2nc(Cc3ccc(F)cc3)ns2)CC1` [Compound 137, 1-(3,5-dichlorobenzoyl)-4-[3-(4-fluorobenzyl)-1,2,4-thiadiazol-5-yl]piperazine], a half-maximal effect (EC50) was put at 0.35 µg/mL (≈ 0.775 µM) and the “%I” value was 68%.
The corresponding values for `O=C(c1cccc(Cl)c1)N1CCN(c2nc(Cc3ccc(F)cc3)ns2)CC1` [Compound 138, 1-(3-chlorobenzoyl)-4-[3-(4-fluorobenzyl)-1,2,4-thiadiazol-5-yl]piperazine] are 0.36 µg/mL (≈ 0.863 µM) and 81%.
The corresponding values for `Cc1ccc(C(=O)N2CCN(c3nc(Cc4ccc(F)cc4)ns3)CC2C)cc1` (stereo not drawn) [Compound 139, 1-(4-methylbenzoyl)-4-[3-(4-fluorobenzyl)-1,2,4-thiadiazol-5-yl]-2-methylpiperazine] are 0.4 µg/mL (≈ 0.974 µM) and 87%.
As for `Cc1ccccc1C(=O)N1CCN(c2nc(Cc3ccc(F)cc3)ns2)CC1C` (stereo not drawn) [Compound 140, 1-(2-methylbenzoyl)-4-[3-(4-fluorobenzyl)-1,2,4-thiadiazol-5-yl]-2-methylpiperazine], the EC50 amounted to 0.45 µg/mL (≈ 1.1 µM) and the “%I” value was determined as 56%.
The corresponding values for `Cc1ccc(C(=O)N2CCN(c3nc(Cc4ccc(F)cc4)ns3)CC2)cc1` [Compound 141, 1-(4-methylbenzoyl)-4-[3-(4-fluorobenzyl)-1,2,4-thiadiazol-5-yl]piperazine] are 0.49 µg/mL (≈ 1.24 µM) and 75%.
As for `CC1CN(c2nc(Cc3ccc(F)cc3)ns2)CCN1C(=O)c1cccc(Br)c1` (stereo not drawn) [Compound 142, 1-(3-bromobenzoyl)-4-[3-(4-fluorobenzyl)-1,2,4-thiadiazol-5-yl]-2-methylpiperazine], the EC50 stood at 0.5 µg/mL (≈ 1.05 µM) and the “%I” value turned out to be 72%.
The matching figures for `CCc1ccc(C(=O)N2CCN(c3nc(Cc4cccc(OC)c4)ns3)CC2C)cc1` (stereo not drawn) [Compound 143, 1-(4-ethylbenzoyl)-4-[3-(3-methoxybenzyl)-1,2,4-thiadiazol-5-yl]-2-methylpiperazine]: 0.56 µg/mL (≈ 1.28 µM) and 89%.
The matching figures for `CC1CN(c2nc(Cc3ccc(F)cc3)ns2)CCN1C(=O)c1cccc(C(F)(F)F)c1` (stereo not drawn) [Compound 145, 1-(3-trifluoromethylbenzoyl)-4-[3-(4-fluorobenzyl)-1,2,4-thiadiazol-5-yl]-2-methylpiperazine]: 0.62 µg/mL (≈ 1.33 µM) and 60%.
The corresponding values for `COc1cccc(Cc2nsc(N3CCN(C(=O)c4ccc(C(C)(C)C)cc4)C(C)C3)n2)c1` (stereo not drawn) [Compound 146, 1-(4-tert-butylbenzoyl)-4-[3-(3-methoxybenzyl)-1,2,4-thiadiazol-5-yl]-2-methylpiperazine] are 0.72 µg/mL (≈ 1.55 µM) and 94%.
Turning to `CCc1ccc(C(=O)N2CCN(c3nc(Cc4ccc(C)cc4)ns3)CC2C)cc1` (stereo not drawn) [Compound 147, 1-(4-ethylbenzoyl)-4-[3-(4-methylbenzyl)-1,2,4-thiadiazol-5-yl]-2-methylpiperazine], a half-maximal effect (EC50) was put at 0.84 µg/mL (≈ 2 µM) and the “%I” value came out at 88%.
For the compound `CC1CN(c2nc(Cc3ccc(F)cc3)ns2)CCN1C(=O)c1ccccc1Br` (stereo not drawn) [Compound 148, 1-(2-bromobenzoyl)-4-[3-(4-fluorobenzyl)-1,2,4-thiadiazol-5-yl]-2-methylpiperazine], the response was half-maximal at 0.86 µg/mL (≈ 1.81 µM) (EC50) and the “%I” value stood at 56%.
As to `Cc1ccc(Cc2nsc(N3CCN(C(=O)c4ccccc4F)C(C)C3)n2)cc1` (stereo not drawn) [Compound 149, 1-(2-fluorobenzoyl)-4-[3-(4-methylbenzyl)-1,2,4-thiadiazol-5-yl]-2-methylpiperazine], a half-maximal effect (EC50) was put at 0.98 µg/mL (≈ 2.39 µM) and the “%I” value amounted to 105%.
Take `CC1CN(c2nc(Cc3ccccc3)ns2)CCN1C(=O)c1cccc(F)c1` (stereo not drawn) [Compound 150, 1-(3-fluorobenzoyl)-4-[3-benzyl-1,2,4-thiadiazol-5-yl]-2-methylpiperazine]: the EC50 worked out at 1.14 µg/mL (≈ 2.88 µM) and the “%I” value worked out at 99%.
Take `Cc1ccc(Cc2nsc(N3CCN(C(=O)c4ccc(F)cc4)C(C)C3)n2)cc1` (stereo not drawn) [Compound 151, 1-(4-fluorobenzoyl)-4-[3-(4-methylbenzyl)-1,2,4-thiadiazol-5-yl]-2-methylpiperazine]: the concentration giving a half-maximal response (EC50) was found to be 1.14 µg/mL (≈ 2.78 µM) and the “%I” value was 73%.
The corresponding values for `Cc1ccccc1C(=O)N1CCN(c2nc(Cc3ccc(F)cc3)ns2)CC1` [Compound 152, 1-(2-methylbenzoyl)-4-[3-(4-fluorobenzyl)-1,2,4-thiadiazol-5-yl]piperazine] are 1.15 µg/mL (≈ 2.9 µM) and 66%.
For `O=C(c1ccc(F)cc1)N1CCN(c2nc(Cc3ccc(Cl)cc3)ns2)CC1` [Compound 153, 1-(4-fluorobenzoyl)-4-[3-(4-chlorobenzyl)-1,2,4-thiadiazol-5-yl]piperazine], the EC50 turned out to be 1.44 µg/mL (≈ 3.45 µM) and the “%I” value is listed as 53%.
Take `CC1CN(c2nc(Cc3ccccc3)ns2)CCN1C(=O)c1ccc(F)cc1` (stereo not drawn) [Compound 154, 1-(4-fluorobenzoyl)-4-[3-benzyl-1,2,4-thiadiazol-5-yl]-2-methylpiperazine]: a half-maximal effect (EC50) was put at 1.58 µg/mL (≈ 3.98 µM) and the “%I” value came out at 75%.
In the case of `Cc1ccc(Cc2nsc(N3CCN(C(=O)c4ccc(Cl)cc4)CC3)n2)cc1` [Compound 155, 1-(4-chlorobenzoyl)-4-[3-(4-methylbenzyl)-1,2,4-thiadiazol-5-yl]piperabine], a half-maximal response (EC50) required 1.64 µg/mL (≈ 3.97 µM) and the “%I” value came to 76%.
Take `Cc1ccc(Cc2nsc(N3CCN(C(=O)c4cccc(F)c4)C(C)C3)n2)cc1` (stereo not drawn) [Compound 156, 1-(3-fluorobenzoyl)-4-[3-(4-methylbenzyl)-1,2,4-thiadiazol-5-yl]-2-methylpiperazine]: the concentration giving a half-maximal response (EC50) amounted to 1.67 µg/mL (≈ 4.07 µM) and the “%I” value came to 86%.
The matching figures for `O=C(c1cccc(F)c1)N1CCN(c2nc(Cc3ccc(Cl)cc3)ns2)CC1` [Compound 157, 1-(3-fluorobenzoyl)-4-[3-(4-chlorobenzyl)-1,2,4-thiadiazol-5-yl]piperazine]: 1.7 µg/mL (≈ 4.08 µM) and 70%.
The matching figures for `Cc1ccc(Cc2nsc(N3CCN(C(=O)c4ccccc4)CC3)n2)cc1` [Compound 158, 1-benzoyl-4-[3-(4-methylbenzyl)-1,2,4-thiadiazol-5-yl]piperazine]: 2.1 µg/mL (≈ 5.55 µM) and 57%.
The corresponding values for `O=C(c1ccccc1F)N1CCN(c2nc(Cc3ccc(Cl)cc3)ns2)CC1` [Compound 159, 1-(2-fluorobenzoyl)-4-[3-(4-chlorobenzyl)-1,2,4-thiadiazol-5-yl]piperazine] are 2.85 µg/mL (≈ 6.84 µM) and 48%.
